We go through 22 compounds from patent US20210115040A1, “OGA INHIBITOR COMPOUNDS” (Janssen Pharmaceutica NV, priority 2018, published 2021).

Test [1] addresses T1, recombinant human Meningioma Expressed Antigen 5 (MGEA5), also referred to as O-GlcNAcase (OGA) (Homo sapiens, UniProt O60502).
T1 construct: Full length OGA enzyme was purchased at OriGene (cat #TP322411); purchased OriGene TP322411
T1 sequence (O60502 1-916): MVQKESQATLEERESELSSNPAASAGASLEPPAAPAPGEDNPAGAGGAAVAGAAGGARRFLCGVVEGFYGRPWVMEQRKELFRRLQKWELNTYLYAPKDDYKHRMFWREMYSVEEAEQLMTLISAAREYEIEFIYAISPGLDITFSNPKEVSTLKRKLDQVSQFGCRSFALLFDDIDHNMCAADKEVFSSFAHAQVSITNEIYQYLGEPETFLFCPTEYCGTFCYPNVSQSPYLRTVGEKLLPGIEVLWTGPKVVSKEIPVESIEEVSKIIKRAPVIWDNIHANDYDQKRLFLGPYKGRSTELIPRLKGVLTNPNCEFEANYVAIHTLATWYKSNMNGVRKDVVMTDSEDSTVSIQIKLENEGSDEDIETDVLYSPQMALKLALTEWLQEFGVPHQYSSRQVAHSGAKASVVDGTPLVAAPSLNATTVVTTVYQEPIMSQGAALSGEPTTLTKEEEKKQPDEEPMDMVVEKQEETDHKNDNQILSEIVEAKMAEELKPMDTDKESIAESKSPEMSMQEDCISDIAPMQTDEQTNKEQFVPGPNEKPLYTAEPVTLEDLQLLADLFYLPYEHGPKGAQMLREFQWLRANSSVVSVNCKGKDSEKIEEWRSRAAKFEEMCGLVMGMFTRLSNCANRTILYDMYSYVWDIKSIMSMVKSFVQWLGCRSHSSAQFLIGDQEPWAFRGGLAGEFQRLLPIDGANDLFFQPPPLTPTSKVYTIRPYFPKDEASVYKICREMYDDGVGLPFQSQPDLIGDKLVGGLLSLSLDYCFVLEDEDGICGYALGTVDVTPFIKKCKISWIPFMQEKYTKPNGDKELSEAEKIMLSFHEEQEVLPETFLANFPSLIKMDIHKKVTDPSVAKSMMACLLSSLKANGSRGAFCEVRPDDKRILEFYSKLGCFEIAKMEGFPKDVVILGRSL
In words: OGA biochemical assay (inhibition of FM-GlcNAc hydrolysis, fluorescence). As to conditions: FM-GlcNAc substrate; for IC50: read-out: Enzymatic hOGA, pIC50 (converted); for Emax / Enzymatic Emax (%): maximal effect; for Emax: read-out: Enzymatic Emax (%). Put shortly: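 Full-length OGA (2 nM) pre-incubated 60 min at room temperature with compound, then FM-GlcNAc (100 uM final) hydrolysed 6 h at room temperature in 200 mM citrate/phosphate pH 7.2 with 0.005% Tween-20. Stopped with carbonate pH 11.0; fluorescein read at ex 485/em 538 nm. IC50 and Hill coefficient from curve fit between no-inhibitor and saturating-standard controls.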

A further test deals with T2, OGA (Homo sapiens, UniProt O60502).
T2 construct: HEK293 cells inducible for P301L mutant human Tau (isoform 2N4R) were established at Janssen; endogenous in cells; host or cells: HEK293 cells inducible for P301L mutant human Tau (2N4R)
T2 sequence (O60502 1-916): T1 sequence (O60502 1-916)
In words: OGA cellular assay (ICC detection of O-GlcNAcylated proteins in HEK293 cells inducible for P301L mutant human Tau). The test is classed as cell-based. Particulars: for Emax: HEK293, HEK293 cells inducible for P301L mutant human Tau; for Emax / Cellular Emax (%): maximum = Thiamet G 200 uM; for EC50 / Cellular Emax (%): HEK293 cells inducible for P301L mutant human Tau; for EC50: 6 hours incubation, read-out: Cellular hOGA, pEC50 (converted). Here is the method: HEK293 cells inducible for P301L mutant human Tau (isoform 2N4R) were established at Janssen. Thiamet-G was used for both plate validation (high control) and as reference compound (reference EC50 assay validation). OGA inhibition is evaluated through the immunocytochemical (ICC) detection of O-GlcNAcylated proteins by the use of a monoclonal antibody (CTD110.6; Cell Signaling, #9875) detecting 0-GlcNAcylated residues as previously described (Dorfmueller et al. 2010 Chemistry & biology, 17:1250). Inhibition of OGA will result in an increase of O-GlcNAcylated protein levels resulting in an increased signal in the experiment. Cell nuclei are stained with Hoechst to give a cell culture quality control and a rough estimate of immediate compounds toxicity, if any. ICC pictures are imaged with a Perkin Elmer Opera Phenix plate microscope and quantified with the provided software Perkin Elmer Harmony 4.1.
Cells were propagated in DMEM high Glucose (Sigma, #D5796) following standard procedures. 2 days before the cell assay cells are split, counted and seeded in Poly-D-Lysine (PDL) coated 96-wells (Greiner, #655946) plate at a cell density of 12,000 cells per cm^2 (4,000 cells per well) in 100 μl of Assay Medium (Low Glucose medium is used to reduce basal levels of GlcNAcylation) (Park et al. 2014 The Journal of biological chemistry 289:13519). At the day of compound test medium from assay plates was removed and replenished with 90 μl of fresh Assay Medium. 10 μl of compounds at a 10fold final concentration were added to the wells. Plates were centrifuged shortly before incubation in the cell incubator for 6 hours. DMSO concentration was set to 0.2%. Medium is discarded by applying vacuum. For staining of cells medium was removed and cells washed once with 100 μl D-PBS (Sigma, #D8537). From next step onwards unless other stated assay volume was always 50 μl and incubation was performed without agitation and at room temperature. Cells were fixed in 50 μl of a 4% paraformaldehyde (PFA, Alpha aesar, #043368) PBS solution for 15 minutes at room temperature. […] Before analysis samples were washed 2 times manually for 5 minutes in ICC base buffer.
Imaging is performed using Perkin Elmer Phenix Opera using a water 20× objective and recording 9 fields per well. Intensity readout at 488 nm is used as a measure of O-GlcNAcylation level of total proteins in wells. To assess potential toxicity of compounds nuclei were counted using the Hoechst staining. IC50-values are calculated using parametric non-linear regression model fitting. As a maximum inhibition Thiamet G at a 200 uM concentration is present on each plate. In addition, a concentration response of Thiamet G is calculated on each plate.

The structures appear in SMILES notation.

For the compound `Cc1cc(OC[C@H]2CCN(C(C)c3ccc4sc(C)nc4n3)C2)cc(C)n1` (mixture of isomers) [Compound 48], the IC50 in test [1] (6 h at room temperature) is 794 nM. For the same compound, in test [1], the Emax was found to be 93%. In addition, on OGA, the Emax came out at 16% and the EC50 was above 1000 nM.
For `Cc1cc(C[C@H]2CCCN(C(C)c3ccc4sc(C)nc4n3)C2)cc(C)n1` (single isomer, unassigned) [Compound 42b], the IC50 in test [1] (6 h at room temperature) is 2.51 nM. Further, the “Enzymatic Emax (%)” value in test [1] came out at 101%. Besides, at OGA, the Emax turned out to be 79% and the EC50 is 10 nM.
With `COc1cc(N[C@H]2CCCN(C(C)c3ccc4sc(C)nc4n3)C2)cc(C)n1` (stereo partly shown) [Compound 83], the IC50 in test [1] (6 h at room temperature) is 10 nM. Further, the Emax in test [1] was found to be 96%. On OGA, the Emax was 78% and the EC50 was 102 nM.
The corresponding values for `Cc1cc(C[C@H]2CCCN([C@H](C)c3ccc4oc(C)nc4n3)C2)cc(OC(F)(F)F)n1` [Compound 25a] are 3.98 nM, 101%, 85% and 50.1 nM.
With `Cc1cc([C@H]2CCCN([C@@H](C)c3ccc4sc(C)nc4n3)C2)cc(C)n1` (racemic) [Compound 76], the IC50 in test [1] (6 h at room temperature) is 5.01 nM. Besides, the maximal effect (Emax) in test [1] came out at 98%. Moreover, at OGA, the maximal response (Emax) was 67% and the EC50 is 31.6 nM.
`Cc1cc(C[C@H]2CCCN(Cc3cnc4nc(C)oc4c3)C2)cc(C)n1` [Compound 37]: the IC50 in test [1] (6 h at room temperature) is 7940 nM. In addition, the maximum response (Emax) in test [1] came out at 55%; on OGA, 2%. Moreover, the EC50 at OGA is above 1000 nM.
Take `COc1cc(OC[C@H]2CCCN(C(C)c3ccc4sc(C)nc4n3)C2)cc(C)n1` (mixture of isomers) [Compound 54]: in test [1] (6 h at room temperature), the IC50 was 10 nM. The Emax is 100% in test [1] and 67% on OGA. Moreover, the EC50 at OGA is 158 nM.
The corresponding values for `Cc1cc(C[C@H]2CCCN([C@H](C)c3ccc4oc(C)nc4n3)C2)cc(C(F)(F)F)n1` [Compound 24a] are 7.94 nM, 99%, 81% and 39.8 nM.
For the compound `Cc1cc(C[C@H]2CCCN(Cc3ccc4sc(C)nc4n3)C2)cc(C)n1` (mixture of isomers) [Compound 52], the IC50 in test [1] (6 h at room temperature) was 63.1 nM. Further, the maximal response (Emax) in test [1] came out at 103%; on OGA it was 70%. Moreover, the EC50 at OGA is 501 nM.
In the case of `Cc1cc(OC[C@H]2CCCN(C(C)c3ccc4sc(C)nc4n3)C2)nc(C)n1` (mixture of isomers) [Compound 49ab], in test [1] (6 h at room temperature), the IC50 is 12.6 nM. Further, in test [1], the maximal response (Emax) is 100%. Moreover, at OGA, the Emax worked out at 68% and the EC50 was 100 nM.
In the case of `Cc1cc(NCC2CCCN(C(C)c3ccc4sc(C)nc4n3)C2)cc(C)n1` (single isomer, unassigned) [Compound 106], the IC50 in test [1] (6 h at room temperature) was 5.01 nM. In addition, the maximal response (Emax) in test [1] came to 99%; at OGA, 92%. On OGA, the EC50 is 6.31 nM.
The corresponding values for `Cc1cc(C2CCCN(C(C)c3ccc4oc(C)nc4n3)C2)cc(C(F)(F)F)n1` (racemic) [Compound 19] are 20 nM, 99%, 68% and 501 nM.
Taken in the same sequence, the figures for `Cc1cc(CO[C@H]2CCCN(C(C)c3cc4nc(C)sc4cc3F)C2)cc(C)n1` (mixture of isomers) [Compound 99] were 3.16 nM, 99%, 66% and 63.1 nM.
Regarding `Cc1cc(OC[C@H]2CCCN(C(C)c3cc4nc(C)sc4cc3F)C2)cc(C)n1` (stereo partly shown) [Compound 98], in test [1] (6 h at room temperature), the IC50 was 2.51 nM. Moreover, the Emax in test [1] amounted to 102%; at OGA it was 60%. In addition, the EC50 on OGA was 12.6 nM.
For `Cc1cc(C[C@@H]2CCN(C(C)c3nc4nc(C)sc4cc3F)C2)cc(C)n1` (single isomer, unassigned) [Compound 94], the IC50 in test [1] (6 h at room temperature) was 1580 nM. Also, in test [1], the “Enzymatic Emax (%)” value came to 76%. Besides, at OGA, the EC50 was above 1000 nM and the “Cellular Emax (%)” value was 2%.
With `Cc1cc(NC[C@H]2CCCN(C(C)c3ccc4sc(C)nc4n3)C2)nc(C)n1` (stereo partly shown) [Compound 108], in test [1] (6 h at room temperature), the IC50 was 7.94 nM. For the same compound, the Emax in test [1] was 101%; at OGA, 84%. The EC50 at OGA was 12.6 nM.
The corresponding values for `Cc1cc(OC[C@H]2CCCN(C(C)c3nc4nc(C)sc4cc3F)C2)cc(C)n1` (stereo partly shown) [Compound 91] are 3.98 nM, 101%, 66% and 7.94 nM.
As for `Cc1cc(NCC2CCCN(C(C)c3ccc4sc(C)nc4n3)C2)cc(C)n1` (stereo not shown) [Compound 105], the IC50 in test [1] (6 h at room temperature) is 501 nM. Moreover, the maximal effect (Emax) in test [1] is 94%; at OGA, 14%. On OGA, the EC50 was above 1000 nM.
Take `Cc1cc(C[C@@H]2CCN(C(C)c3nc4nc(C)sc4cc3F)C2)cc(C)n1` (single isomer, unassigned) [Compound 93]: in test [1] (6 h at room temperature), the IC50 is 3.16 nM. Also, the maximal effect (Emax) in test [1] turned out to be 92%. For the same compound, on OGA, the EC50 is 39.8 nM and the “Cellular Emax (%)” value came out at 91%.
For the compound `Cc1cc(OC2CCCN(C(C)c3ccc4sc(C)nc4n3)C2)cc(C)n1` (stereo not shown) [Compound 40], in test [1] (6 h at room temperature), the IC50 was 12.6 nM. Moreover, the Emax in test [1] is 99%. At OGA, the Emax was found to be 49% and the EC50 is 794 nM.
Consider `Cc1cc(C2CCCN(C(C)c3cc4nc(C)sc4cc3F)C2)cc(C)n1` (stereo not shown) [Compound 90], for which the “Enzymatic hOGA; pIC50” value in test [1] (6 h at room temperature) was 8.2. The “Enzymatic Emax (%)” value in test [1] turned out to be 101%. Further, at OGA, the EC50 was 31.6 nM and the “Cellular Emax (%)” value is listed as 84%.
For the compound `Cc1cc(C2CCCN(C(C)c3ccc4sc(C)nc4n3)C2)c(F)c(C)n1` (single isomer, unassigned) [Compound 78], the IC50 in test [1] (6 h at room temperature) is 10 nM. In test [1], the “Enzymatic Emax (%)” value turned out to be 93%. Besides, on OGA, the EC50 is 79.4 nM and the “Cellular Emax (%)” value was found to be 80%.
